Test [1] concerns the target T1, Coagulation factor XII (Homo sapiens, UniProt P00748).
T1 sequence (P00748 whole entry): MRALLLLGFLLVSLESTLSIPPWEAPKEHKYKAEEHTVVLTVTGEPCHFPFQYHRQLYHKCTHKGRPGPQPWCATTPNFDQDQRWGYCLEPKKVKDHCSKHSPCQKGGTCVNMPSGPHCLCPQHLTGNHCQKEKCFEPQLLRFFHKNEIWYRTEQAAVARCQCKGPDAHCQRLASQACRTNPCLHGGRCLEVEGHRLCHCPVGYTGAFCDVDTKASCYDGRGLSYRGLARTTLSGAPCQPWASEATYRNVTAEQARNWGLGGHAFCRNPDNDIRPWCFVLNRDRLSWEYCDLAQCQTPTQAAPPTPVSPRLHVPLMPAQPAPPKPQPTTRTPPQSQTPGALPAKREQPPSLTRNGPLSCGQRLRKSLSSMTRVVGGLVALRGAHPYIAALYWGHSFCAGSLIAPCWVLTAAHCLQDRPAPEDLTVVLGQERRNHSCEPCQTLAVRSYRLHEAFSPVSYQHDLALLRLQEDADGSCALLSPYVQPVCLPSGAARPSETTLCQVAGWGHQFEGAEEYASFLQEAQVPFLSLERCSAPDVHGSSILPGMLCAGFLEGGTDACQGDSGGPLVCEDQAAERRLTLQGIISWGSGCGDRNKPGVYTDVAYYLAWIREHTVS
The experiment in a line: Inhibition of human factor 12a.

For test [2], the target named is T1, Coagulation factor XII. Description: Inhibition of human factor 12a using H-D-Pro-Phe-Arg-pNa as substrate by spectrophotometric method.
Test [3] addresses T2, Trypsin (Homo sapiens, UniProt P07477+P07478+P35030). Description: Inhibition of trypsin (unknown origin). The format is protein assay.
The target in test [4] is T1, Coagulation factor XII. The experiment in a line: Inhibition of factor 12a (unknown origin).
Test [5] in a line: Inhibition of bovine trypsin using BAEE as substrate by Lineweaver-Burk analysis. More on the design: species or system Bos taurus.
Test [6] can be described thus: Inhibition of bovine trypsin using chromogenic substrate by Lineweaver-Burk analysis. More on the design: species or system Bos taurus.
Test [7] addresses T1, Coagulation factor XII. Description: Inhibition of human factor 12a using chromogenic substrate by Lineweaver-Burk analysis.
The target in test [8] is T2, Trypsin. The experiment in a line: Competitive inhibition of trypsin (unknown origin) using BFSR as substrate. Type of test: protein assay.
The target of test [9] is T1, Coagulation factor XII. The experiment in a line: Non-competitive inhibition of factor 12a (unknown origin) using BQGR as substrate.

The text below walks through data of ChEMBL document CHEMBL4706558, “Factor XII/XIIa inhibitors: Their discovery, development, and potential indications” (Eur J Med Chem, 2020).

The term IC50 denotes the concentration needed to halve the response being measured. Lower therefore signals greater potency. The compound `N=C(N)Nc1ccc(OC(=O)c2cc3cc(CCl)ccc3oc2=O)cc1` returned an IC50 against Coagulation factor XII [1] of 6 µM.
Broadly, the Ki is a measure of affinity in units of concentration, obtained from inhibition or displacement. A lower Ki goes with tighter binding. On Coagulation factor XII [2], `N=C(N)NCCC[C@H](NC(=O)[C@@H]1CCCN1C(=O)[C@H](N)Cc1ccccc1)C(=O)CCl` returned an inhibition constant (Ki) of 0.23 µM.
`N=C(N)NCCCCCC(=O)Oc1ccccc1` displayed a Ki at Trypsin [3] of 0.8 µM.
As to `Cc1ccc2oc(=O)c(C(=O)Nc3ccc(N)cc3)cc2c1`, the IC50 against Coagulation factor XII [4] stood at 14 µM.
`CCCCCCOC(=O)CCCCCNC(=N)N` displayed a Ki on Trypsin [3] of 20 µM.
In turn, `N=C(N)Nc1ccc(NC(=O)c2cc3cc(Cl)cc(Br)c3oc2=O)cc1` displayed an IC50 at Coagulation factor XII [1] of 102 µM.
Consider `CCCCCCOC(=O)CCCCCN`, for which, in [5], affinity was put at a Ki of 58.7 µM.
On Coagulation factor XII [1], `Cc1ccc2oc(=O)c(C(=O)Nc3ccc(NC(=N)N)cc3)cc2c1` displayed an IC50 of 150 µM.
As to `CCOC(=O)c1ccc(OC(=O)CCCCCNC(=N)N)cc1` [GABEXATE], the inhibitory constant (Ki) amounted to 0.072 µM in test [6] and 2.92 µM at Coagulation factor XII [7].
Taken in the same sequence, the figures for `N=C(N)Nc1ccc(C(=O)Oc2ccc3cc(C(=N)N)ccc3c2)cc1` [NAFAMOSTAT] were 0.016 µM and 0.105 µM.
For the compound `N=C(N)c1ccc2cc(OC(=O)c3ccc(NC4=NCCN4)cc3)ccc2c1` [SEPIMOSTAT], the Ki at Trypsin [8] was determined as 0.097 µM; at Coagulation factor XII [9] it was 0.021 µM.
